# Data as given in BindingDB's records for doi:10.1021/jm034065z (Pfizer, 2003).
# Biological target: Aldo-keto reductase family 1 member B1 (Homo sapiens, UniProt P15121)
# Test: In Vitro Aldose Reductase Inhibition Assay
# Settings: pH 7; 24 °C
# Procedure: The activity of the enzyme was determined spectrophotometrically by monitoring the change in absorbance at 340 nm, which is due to the disappearance of NADPH. Inhibition by test compound was measured as the percentage decrease in the rate of NADPH oxidation as compared to a sample without test compound. The determination of the IC50 values was performed by using linear regression analysis of the log dose response curve.
row,IC50 [nM],SMILES
1,150,O=c1ccc(S(=O)(=O)c2cc3ccccc3o2)n[nH]1
2,25,O=c1ccc(S(=O)(=O)c2cc3cc(Cl)ccc3o2)n[nH]1
